Columns and labels:
Type in all cases: cell-based
neutrophil oxidase = test: Priming of the neutrophil oxidase / fMLP stimulated respiratory burst by biologically active compounds; conditions: added directly to the assay
Source text: The priming activity of plasma specimens from various sources including patient samples and blood components has been described herein. The effects on priming by various dilutions may correlate with the concentration of biologically active compounds in the specimens. Many of these compounds are well characterized and their priming activities determined. […] Each has its own concentration dependent effects. […] Similar effects are seen with complement fragments (e.g., C5a), other biologically active lipids (e.g., leukotrienes), and other compounds (e.g., sCD40L). Antibodies to neutrophil antigens (e.g., HNA-3a) also can prime the oxidase enzyme system. All these agents may be detected in plasma from blood components implicated in TRALI or plasma from patients sustaining a TRALI reaction. All may be added directly to the assay and priming activity detected as described in other sections.

[1] = tested on: peripheral blood neutrophils; test: Priming assay using fluorescent probe (DHR) for hydrogen peroxide, flow cytometry
Description: Hydrogen peroxide (H2O2) is another reactive oxygen species produced by neutrophils when the NADPH oxidase and associated respiratory burst are activated. H2O2 can be detected intracellularly by incubating cells with dihydrorhodamine (DHR). This non-fluorescent compound will be oxidized to rhodamine, a potent fluorophore, when H2O2 is generated by activated neutrophils. This assay can be used to detect enhancement of the fMLP stimulated respiratory burst. […] Isolated peripheral blood neutrophils are incubated with 50 μM DHR. After exposure to fMLP (1 μM) or PAF (1 μM) for 3 minutes and fMLP (1 μM), the cells are placed on ice and samples analyzed with the evaluation of 10,000 events on a BD Canto flow cytometer. […] When PAF is used to prime the fMLP response, the result is a marked increase in H2O2 production expressed as MCF (˜250 MCF units).
This assay has been further optimized for the following reagents: DHR, 50 μM with the best loading time of 1 minute. Optional concentration of fMLP is 1 μM and PAF 1 μM. The assay should be analyzed in a flow cytometer as soon as possible but may be delayed up to 4 hours after completion without jeopardizing the results. Finally, plasma itself quenches the fluorescence. As a result the priming assay on this platform requires exposure of the cells to buffer or test sample for priming (PAF, plasma, etc), a low speed centrifugation to pellet cells, resuspension of cells in DHR containing buffer, then stimulation with fMLP. Determination of MCF is by analysis of 20,000 events. FIG. 6 summarizes results, expressed as mean ±SEM, with this assay in four separate experiments. Resting cells with buffer present very low levels of H2O2 with an increase when resting cells are stimulated with fMLP. Plasma from Day 0 and 7 stored platelet concentrates has little effect in the absence of fMLP.

cytoplasts = test: Cytoplast priming assay, superoxide anion measured as cytochrome c reduction; conditions: PAF 1 μM, fMLP 1 μM
Description: Cytoplasts are neutrophils which have been sedimented on a 20% Ficoll gradient at 77,000×g. Cytoplasts, are devoid of nucleus, granules and other subcellular organelles. Cytoplasts retain the ability for random and directed migration, phagocytosis of opsonized particles as well as activation of a respiratory burst and generation of reactive oxygen species. They can be frozen at −70° C. and thawed; the thawed cytoplasts can be used as targets for priming activity. The advantage is that cytoplasts would be readily available for assaying priming activity of biologic specimens (FIG. 1B, 113) in place of freshly isolated neutrophils from a healthy donor.

neutrophils = test: Detection of priming by chemiluminescence (Diogenes probe); conditions: priming sample, then fMLP; FIG. 7 and FIG. 8
Description: A third assay makes use of energy from chemiluminescence to determine oxygen radical generation from activated neutrophils. In this reaction, neutrophils are incubated with the priming sample or buffer, then exposed to fMLP after addition of the chemiluminescent probe, Diogenes, and the energy released determined in a chemiluminescence reader. The optimal cell concentration is between 2.5×10^6 cells/ml and 5×10^6 cells/ml. The chemiluminescence is >90% SOD inhibitable and so detects superoxide anion. The optimal addition of diogene is 20 μl to provide specific determination of oxygen radicals released by the neutrophils respiratory burst. […] Buffer alone is included for control. […] As with fluorescence platform, plasma nonspecifically quenches the chemiluminescence. This can be circumvented with an extra wash step to remove plasma after incubating cells with the priming stimulus. The resultant assay is sensitive to the effect in stored blood products. […] The priming effect for PAF is presented for comparison. The results are expressed as mean ±SEM. This platform, using chemiluminescence, can be used to determine priming by biologic samples.

IL-8: cytokine/chemokine found in biologically active plasma samples
priming of the fMLP stimulated respiratory burst (neutrophil oxidase): concentration dependent priming

TNF-alpha
priming of the fMLP stimulated respiratory burst (neutrophil oxidase): concentration dependent priming

fMLP
mean channel fluorescence (H2O2 production) ([1]; fMLP 1 μM by itself, 50 μM DHR, FIG. 5): 45

platelet activating factor [PAF]
enhancement of the fMLP stimulated respiratory burst by priming (cytoplasts): 1.6 to 2.0 fold | H2O2 production expressed as MCF ([1]; PAF 1 μM for 3 minutes, then fMLP 1 μM, 50 μM DHR, FIG. 5): ~250 MCF units | priming of the fMLP stimulated respiratory burst (H2O2, MCF) ([1]; priming sample, then fMLP, four separate experiments, FIG. 6): markedly enhanced | priming of the fMLP stimulated chemiluminescence (RLUs) (neutrophils): higher level of relative light units (RLUs) as well as a more prolonged time course at maximal production
